Results on 31 compounds are retold here after patent US20240166652A1, “MODULATORS OF THE INTEGRATED STRESS PATHWAY” (Calico Life Sciences LLC, priority 2017, published 2024).

This test deals with ATF4 luciferase reporter in HEK293T cells. Description: ATF4-Luc assay (ATF4 luciferase reporter, tunicamycin-treated HEK293T cells). Conditions: Homo sapiens, HEK-293T; HEK293T cells carrying the ATF4 luciferase reporter, 1 μg/mL tunicamycin, 7 hours. The class given is cell-based, human. In general terms: A reporter such as luciferase makes a cellular process visible.

Regarding `O=C(COc1ccc(Cl)c(CO)c1)NC12CC(NC(=O)COc3ccc4c(c3)OC(F)(F)O4)(C1)C2` [Compound 276, 2-[4-chloro-3-(hydroxymethyl)phenoxy]-N-(3-{2-[(2,2-difluoro-2H-1,3-benzodioxol-5-yl)oxy]acetamido}bicyclo[1.1.1]pentan-1-yl)acetamide], the half-maximal effective concentration (EC50) lay within 0.01 to 0.05 µM. In the case of `Cc1cc(OCC(=O)NC23CCC(NC(=O)COc4ccc(Cl)c(Cl)c4)(CC2)[C@@H](O)C3)no1` [Compound 664, 2-(3,4-dichlorophenoxy)-N-[(2S)-2-hydroxy-4-{2-[(5-methyl-1,2-oxazol-3-yl)oxy]acetamido}bicyclo[2.2.2]octan-1-yl]acetamide], the EC50 lay within 0.01 to 0.05 µM. Next, `O=C(COc1ccc(Cl)cc1)NC12CCC(NC(=O)COc3ccc(Cl)c(Cl)c3)(CC1)[C@@H](O)C2` [Compound 582, 2-(4-chlorophenoxy)-N-{(3S)-4-[2-(3,4-dichlorophenoxy)acetamido]-3-hydroxybicyclo[2.2.2]octan-1-yl}acetamide]: less than 0.01 µM; `Cc1cc(C)cc(OCC(=O)NC23CCC(NC(=O)COc4ccc(Cl)c(F)c4)(CC2)C[C@@H]3O)c1` [Compound 502, 2-(4-chloro-3-fluorophenoxy)-N-{(3S)-4-[2-(3,5-dimethylphenoxy)acetamido]-3-hydroxybicyclo[2.2.2]octan-1-yl}acetamide]: 0.05 to 0.25 µM. As to `O=C(COc1ccc(Cl)c(F)c1)NC12CCC(NC(=O)COc3ccc(Cl)c(F)c3)(CC1)C(NCCO)C2` (stereo not shown) [Compound 707, N,N′-{2-[(2-hydroxyethyl)amino]bicyclo[2.2.2]octane-1,4-diyl}bis[2-(4-chloro-3-fluorophenoxy)acetamide]], the concentration giving a half-maximal response (EC50) is less than 0.01 µM. Next, `Cc1cc(F)ccc1OCC(=O)NC12CCC(NC(=O)COc3ccc(Cl)c(F)c3)(CC1)[C@@H](O)C2` [Compound 755, 2-(4-chloro-3-fluorophenoxy)-N-{(2S)-4-[2-(4-fluoro-2-methylphenoxy)acetamido]-2-hydroxybicyclo[2.2.2]octan-1-yl}acetamide]: less than 0.01 µM; `O=C(COc1ccc(Cl)c(CO)c1)NC12CCC(NC(=O)COc3ccc(Cl)c(F)c3)(CC1)[C@@H](O)C2` [Compound 598, 2-(4-chloro-3-fluorophenoxy)-N-[(2S)-4-{2-[4-chloro-3-(hydroxymethyl)phenoxy]acetamido}-2-hydroxybicyclo[2.2.2]octan-1-yl]acetamide]: less than 0.01 µM. Consider `O=C(CCOc1cccc(Cl)c1)NC12CC(NC(=O)COc3ccc(Cl)c(Cl)c3)(C1)C2` [Compound 169, 3-(3-chlorophenoxy)-N-{3-[2-(3,4-dichlorophenoxy)acetamido]bicyclo-[1.1.1]pentan-1-yl}propanamide], for which the EC50 lay within 0.25 to 0.5 µM.

For the compound `O=C(COc1ccc(Cl)c(F)c1)NC12CC(NC(=O)Oc3ccc(Cl)cc3)(C1)C2` [Compound 434, 4-chlorophenyl {3-[2-(4-chloro-3-fluorophenoxy)acetamido]bicyclo[1.1.1]pentan-1-yl}carbamate], the EC50 was in the range of 0.25 to 0.5 µM. With `O=C(COc1cc(F)c2cn[nH]c2c1)NC12CCC(NC(=O)COc3ccc(F)cc3)(CC1)[C@@H](O)C2` [Compound 721], the concentration giving a half-maximal response (EC50) is less than 0.01 µM. `O=C(COc1ccc(Cl)c(F)c1)NC12CCC(NC(=O)Cc3cccc(C(F)(F)F)c3)(CC1)C(O)C2` (stereo not shown) [Compound 321, 2-(4-chloro-3-fluorophenoxy)-N-(3-hydroxy-4-{2-[3-(trifluoromethyl)phenyl]acetamido}bicyclo[2.2.2]octan-1-yl)acetamide]: the 50% effective concentration (EC50) is 0.5 to 2 µM.

Turning to `Cc1ccc(OC(=O)NC23CCC(NC(=O)COc4ccc(Cl)c(F)c4)(CC2)CC3O)cc1` (stereo not shown) [Compound 433, 4-methylphenyl {4-[2-(4-chloro-3-fluorophenoxy)acetamido]-2-hydroxybicyclo[2.2.2]octan-1-yl}carbamate], the EC50 fell in the range of 0.05 to 0.25 µM. Consider `COc1ccc(OC)c(CCC(=O)NC23CC(NC(=O)COc4ccc(Cl)c(F)c4)(C2)C3)c1` [Compound 455, N-{3-[2-(4-chloro-3-fluorophenoxy)acetamido]bicyclo[1.1.1]pentan-1-yl}-3-(2,5-dimethoxyphenyl)propanamide], for which the EC50 is more than 2 µM. Regarding `O=C(COc1ccc(Cl)c(F)c1)NC12CC(NC(=O)COc3ccccn3)(C1)C2` [Compound 402, 2-(4-chloro-3-fluorophenoxy)-N-(3-{2-[(pyridin-2-yl)oxy]acetamido}bicyclo[1.1.1]pentan-1-yl)acetamide], the EC50 lay within 0.05 to 0.25 µM. Take `CC(C)(O)c1ccc(OCC(=O)NC23CC(NC(=O)COc4ccc(Cl)c(F)c4)(C2)C3)cc1` [Compound 407, 2-(4-chloro-3-fluorophenoxy)-N-(3-{2-[4-(2-hydroxypropan-2-yl)phenoxy]acetamido}bicyclo[1.1.1]pentan-1-yl)acetamide]: the EC50 lay within 0.05 to 0.25 µM. As to `Cc1ccc(COCC(=O)NC23CC(NC(=O)COc4ccc(Cl)c(Cl)c4)(C2)C3)cc1` [Compound 160, 2-(3,4-dichlorophenoxy)-N-(3-{2-[(4-methylphenyl)methoxy]-acetamido}bicyclo[1.1.1]pentan-1-yl)acetamide], the 50% effective concentration (EC50) lay within 0.05 to 0.25 µM. Consider `O=C(COc1ccc(Cl)c(F)c1)NC12CCC(NC(=O)CCOc3ccc(Cl)c(F)c3)(CC1)[C@@H](O)C2` [Compound 650, 3-(4-chloro-3-fluorophenoxy)-N-{(2S)-4-[2-(4-chloro-3-fluorophenoxy)acetamido]-2-hydroxybicyclo[2.2.2]octan-1-yl}propanamide], for which the concentration giving a half-maximal response (EC50) was less than 0.01 µM. With `O=C(COc1ccc(Cl)c(F)c1)NC12CCC(NC(=O)COc3ccon3)(CC1)[C@@H](O)C2` [Compound 639, 2-(4-chloro-3-fluorophenoxy)-N-[(3S)-3-hydroxy-4-{2-[(1,2-oxazol-3-yl)oxy]acetamido}bicyclo[2.2.2]octan-1-yl]acetamide], the EC50 lay in the range of 0.05 to 0.25 µM. Next, `CC(=O)NC1CC2(NC(=O)COc3ccc(Cl)c(F)c3)CCC1(NC(=O)COc1ccc(Cl)c(F)c1)CC2` (stereo not shown) [Compound 358, N,N′-(2-acetamidobicyclo[2.2.2]octane-1,4-diyl)bis[2-(4-chloro-3-fluorophenoxy)acetamide]]: less than 0.01 µM; `O=C(COc1ccc(Cl)c(F)c1)NC12CCC(NC(=O)COc3ccc(Cl)c(Cl)c3)(CC1)[C@@H](O)C2` [Compound 452, 2-(4-chloro-3-fluorophenoxy)-N-{(3S)-4-[2-(3,4-dichlorophenoxy)acetamido]-3-hydroxybicyclo[2.2.2]octan-1-yl}acetamide]: less than 0.01 µM. Regarding `O=C(COc1ccc(Cl)c(F)c1)NC12CC(NC(=O)Nc3ccc(Cl)cc3O)(C1)C2` [Compound 432, 2-(4-chloro-3-fluorophenoxy)-N-(3-{[(4-chloro-2-hydroxyphenyl)carbamoyl]amino}bicyclo[1.1.1]pentan-1-yl)acetamide], the half-maximal effective concentration (EC50) lay in the range of 0.05 to 0.25 µM. Turning to `O=C(COc1ccc(Cl)c(F)c1)N[C@H]1C[C@H]2C[C@@H]1C[C@@H]2NC(=O)COc1ccc(Cl)c(F)c1` (single isomer, unassigned) [Compound 620], the EC50 is less than 0.01 µM. Consider `Cc1n[nH]c2cc(OCC(=O)NC34CCC(NC(=O)COc5ccc(OC(F)(F)F)c(F)c5)(CC3)C[C@@H]4O)ccc12` [Compound 747, 2-[3-fluoro-4-(trifluoromethoxy)phenoxy]-N-[(3S)-3-hydroxy-4-{2-[(3-methyl-1H-indazol-6-yl)oxy]acetamido}bicyclo[2.2.2]octan-1-yl]acetamide], for which the 50% effective concentration (EC50) was 0.01 to 0.05 µM. `CC(O)(c1ccc(OCC(=O)NC23CC(NC(=O)COc4ccc(Cl)c(F)c4)(C2)C3)cc1)C(F)(F)F` (stereo not shown) [Compound 413, 2-(4-chloro-3-fluorophenoxy)-N-(3-{2-[4-(1,1,1-trifluoro-2-hydroxypropan-2-yl)phenoxy]acetamido}bicyclo[1.1.1]pentan-1-yl)acetamide]: the EC50 lay within 0.25 to 0.5 µM. Next, `O=C(COc1ccc(Cl)c(F)c1)NC12CC(NCC(=O)c3ccc(Cl)c(Cl)c3)(C1)C2` [Compound 286, 2-(4-chloro-3-fluorophenoxy)-N-(3-{[2-(3,4-dichlorophenyl)-2-oxoethyl]amino}bicyclo[1.1.1]pentan-1-yl)acetamide]: 0.05 to 0.25 µM. For `CCc1cc(COCC23CC(NC(=O)COc4ccc(Cl)c(F)c4)(C2)C3)on1` [Compound 610, 2-(4-chloro-3-fluorophenoxy)-N-(3-{[(3-ethyl-1,2-oxazol-5-yl)methoxy]methyl}bicyclo[1.1.1]pentan-1-yl)acetamide], the EC50 was more than 2 µM. As to `O=C(COc1ccccn1)NC12CCC(NC(=O)COc3cccc(Cl)c3)(CC1)[C@@H](O)C2` [Compound 662, 2-(3-chlorophenoxy)-N-[(2S)-2-hydroxy-4-{2-[(pyridin-2-yl)oxy]acetamido}bicyclo[2.2.2]octan-1-yl]acetamide], the concentration giving a half-maximal response (EC50) lay in the range of 0.25 to 0.5 µM. Next, `O=C(COc1ccc(F)c(F)c1)NC12CC(NC(=O)COc3ccc4c(c3)OC(F)(F)O4)(C1)C2` [Compound 379, 2-[(2,2-difluoro-2H-1,3-benzodioxol-5-yl)oxy]-N-{3-[2-(3,4-difluorophenoxy)acetamido]bicyclo[1.1.1]pentan-1-yl}acetamide]: less than 0.01 µM; `CN(CCO)C1CC2(NC(=O)COc3ccc(Cl)c(F)c3)CCC1(NC(=O)COc1ccc(Cl)c(F)c1)CC2` (stereo not shown) [Compound 711, N,N′-{2-[(2-hydroxyethyl)(methyl)amino]bicyclo[2.2.2]octane-1,4-diyl}bis[2-(4-chloro-3-fluorophenoxy)acetamide]]: less than 0.01 µM; `COC(=O)c1cc(OCC(=O)NC23CCC(NC(=O)COc4ccc(Cl)c(C(=O)OC)c4)(CC2)[C@@H](O)C3)ccc1Cl` [Compound 594, dimethyl 3,3′-{[(2S)-2-hydroxybicyclo[2.2.2]octane-1,4-diyl]bis[azanediyl(2-oxoethane-2,1-diyl)oxy]}bis(6-chlorobenzoate)]: more than 2 µM. `CN(CCCOc1ccc(Cl)cc1)C12CCC(NC(=O)COc3ccc(Cl)c(F)c3)(CC1)[C@@H](O)C2` [Compound 696, 2-(4-chloro-3-fluorophenoxy)-N-[(2S)-4-{[3-(4-chlorophenoxy)propyl](methyl)amino}-2-hydroxybicyclo[2.2.2]octan-1-yl]acetamide]: the EC50 was 0.01 to 0.05 µM.

A word on the EC50: it is the midpoint of the concentration-response curve.
